From US20250326772A1, “MRGPRX2 ANTAGONISTS, PHARMACEUTICAL COMPOSITION INCLUDING MRGPRX2 ANTAGONIST, AND METHOD OF TREATING MRGPRX2-MEDIATED DISEASE OR DISORDER” (KYORIN PHARMACEUTICAL CO., LTD., priority 2024, published 2025) come the findings set out here.

The test concerns the target T1, MRGPRX2 (Homo sapiens, UniProt Q96LB1).
T1 sequence (Q96LB1 1-330): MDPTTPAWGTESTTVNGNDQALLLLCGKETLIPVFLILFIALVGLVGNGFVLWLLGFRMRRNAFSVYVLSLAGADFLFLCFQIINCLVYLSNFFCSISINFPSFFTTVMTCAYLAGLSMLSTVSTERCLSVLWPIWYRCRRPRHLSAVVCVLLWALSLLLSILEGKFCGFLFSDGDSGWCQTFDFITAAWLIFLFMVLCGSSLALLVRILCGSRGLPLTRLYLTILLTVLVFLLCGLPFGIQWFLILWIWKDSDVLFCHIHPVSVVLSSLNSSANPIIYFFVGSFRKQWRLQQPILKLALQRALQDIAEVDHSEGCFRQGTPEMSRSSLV
In words: MRGPRX2 reporter cell assay (NFAT-RE luciferase, Substance P stimulation). The test is classed as cell-based. Particulars: U2OS cells stably transfected with MRGPRX2 and NFAT-RE luciferase reporter, Substance P at EC80. The protocol: MRGPRX2 Reporter Cell Assays U2OS cells (ATCC, Manassas, VA) were stably transfected with MRGPRX2 expression clones (GeneCopoeia, Rockville, MD) and the pGL4.30 [luc2P/NFAT-RE/Hygro] reporter plasmid (Promega, Madison, WI). Clonal cells were maintained in Growth Media (McCoy's 5A, 10% FBS, 495 μg/ml hygromycin, 2 μg/ml puromycin, 100 units/ml penicillin, and 100 ug/ml streptomycin). The day before assay, cells were plated to white 384-well microplates at 3000 (MRGPRX2) cells/well in 10 ul Assay Media (McCoy's 5A, 2% charcoal dextran stripped FBS, 100 units/ml penicillin, and 100 ug/ml streptomycin) (Gibco, Thermo Fisher) and allowed to adhere overnight. The following day, serially diluted compound stocks were added directly to the cells (final DMSO concentration of 0.5%) and pre-incubated for 30 minutes at 37° C., 5% CO2. The final concentration of Substance P (Tocris, Minneapolis, MN, or PEPTIDE INSTITUTE, Osaka, Japan) corresponding to EC80 was added to stimulate the (MRGPRX2) cells. Cells were returned to the incubator for 6 hrs, after which 5 ul of ONE-GLO substrate (Promega) was added. Luminescence was read within 15 minutes (BioTek, Winooski, VT or infinite M1000Pro, Tecan Japan, Kanagawa, Japan). Percent inhibition for each test compound was calculated using the formula: […] where: • A=the luminescence count of the “test compound” well • B=the median luminescence count of the “Vehicle (0.5% DMSO)” wells • C═the median luminescence count of the “Vehicle (0.5% DMSO)+5 uM of substance P” wells The mean percent inhibition of each concentration of “test compound” was used to generate dose-response curves. IC50 values were calculated using a four-parameter logistic fit to the data using GraphPad Prism software. • +++: […]

Molecules are shown by their SMILES.

Molecule `N#Cc1cnccc1-c1c(-c2c(C(F)F)nn3c2OCCC3)[nH]c2ncccc12` [EX. 408] returned a 50% inhibitory concentration (IC50) (class symbols) of less than 10 nM.
The molecule `Cn1cc(-c2c(-c3c(C(F)F)nn4c3OC[C@@](C)(O)C4)[nH]c3ncccc23)c(OC(F)F)n1` [EX. 481] had a 50% inhibitory concentration (IC50) (class symbols) of less than 10 nM.
Same read-out and setting: the result for `COc1ccc(C#N)c(-c2c(-c3c(C(F)F)nn4c3OC[C@@H](N)C4)[nH]c3ncccc23)c1` [EX. 363] reads less than 10 nM.
The same measure, in the same setting: the value for `Cn1cc(-c2[nH]c3ncccc3c2-c2cc(Cl)ccc2C#N)c(C(F)F)n1` [EX. 375, 4-chloro-2-[2-[3-(difluoromethyl)-1-methyl-pyrazol-4-yl]-1 H-pyrrolo[2,3-b]pyridin-3-yl]benzonitrile] was less than 10 nM; that for `Cn1cc(-c2c(-c3cn(C)nc3C(F)F)[nH]c3ncccc23)c(OC(F)F)n1` [EX. 291] was 10 to 100 nM.
Same read-out and setting: the result for `COc1ccc(C#N)c(-c2c(-c3nn(C)cc3C(F)F)[nH]c3ncccc23)c1` [EX. 281] reads less than 10 nM; that for `Cn1cc(-c2[nH]c3ncccc3c2-c2cc(F)ccc2C#N)c(C(F)F)n1` [EX. 300], less than 10 nM; that for `CO[C@]1(C)COc2c(-c3[nH]c4ncccc4c3-c3cc(C)sc3C#N)c(C(F)F)nn2C1` [EX. 486, (S)-3-(2-(2-(difluoromethyl)-6-methoxy-6-methyl-6,7-dihydro-5H-pyrazolo[5,1-b] [1,3]oxazin-3-yl)-1H-pyrrolo[2,3-b]pyridin-3-yl)-5-methylthiophene-2-carbonitrile], less than 10 nM.
`Cc1cc(-c2c(-c3c(C)nn4c3OC[C@@H](OCCO)C4)[nH]c3ncccc23)c(C#N)s1` [EX. 504] yielded an IC50 (class symbols) of less than 10 nM.
Turning to `COc1ccc(F)c(-c2c(-c3cc(F)ccc3OC)[nH]c3ncccc23)c1` [EX. 345], the IC50 (class symbols) was less than 10 nM.
Under “class symbols”, `FC(F)Oc1nnccc1-c1c(-c2c(C(F)F)nn3c2OCCC3)[nH]c2ncccc12` [EX. 388, 3-(3-(3-(difluoromethoxy)pyridazin-4-yl)-1H-pyrrolo[2,3-b]pyridin-2-yl)-2-(difluoromethyl)-6,7-dihydro-5H-pyrazolo[5,1-b] [1,3]oxazine] showed an IC50 of 10 to 100 nM.
Under “class symbols”, `N#Cc1ccccc1-c1c(-c2csnc2C(F)F)[nH]c2ncccc12` [EX. 75] showed a half-maximal inhibitory concentration (IC50) of less than 10 nM.
`Cn1cc(-c2c(-c3c(C(F)F)nn4c3OC[C@@H](F)C4)[nH]c3ncccc23)c(C#N)n1` [EX. 449] returned an IC50 of 2.6 nM. Moreover, the IC50 (class symbols) was less than 10 nM.
Under “class symbols”, `FC(F)c1nn2c(c1-c1[nH]c3ncccc3c1-c1ccncc1C(F)(F)F)OCCC2` [EX. 412] registered an IC50 of 10 to 100 nM.
The same measure, in the same setting: the value for `C[C@H](O)COC(=O)N[C@@H]1COc2c(-c3[nH]c4ncccc4c3-c3cn(C)nc3OC(F)F)c(C(F)F)nn2C1` [EX. 567] was less than 10 nM.
For the molecule `Cn1cc(-c2c(-c3c(C(F)F)nn4c3OCCC4)[nH]c3ncccc23)c(OC(F)F)n1` [EX. 272], the half-inhibitory concentration (IC50) turned out to be 2.9 nM. The molecule further displayed a 50% inhibitory concentration (IC50) (class symbols) of less than 10 nM.
For the molecule `N#Cc1ccccc1-c1c(-c2cnn3c2OCCC3)[nH]c2nccc(F)c12` [EX. 90], the half-maximal inhibitory concentration (IC50) (class symbols) is less than 10 nM.
On the same count and under the same terms, the value for `Cc1cc(-c2c(-c3cnn4c3OCCC4)[nH]c3ncccc23)c(C#N)s1` [EX. 380] was 10 to 100 nM; that for `Cc1cc(-c2c(-c3c(C4CC4)nn4c3OC[C@@H](O)C4)[nH]c3ncccc23)c(C#N)s1` [EX. 460] was less than 10 nM.
Take `N#Cc1ccccc1-c1c(-c2c[nH]nc2C(F)F)[nH]c2ncccc12` [EX. 71]: where the note is “class symbols”, the half-maximal inhibitory concentration (IC50) was less than 10 nM.
Under “class symbols”, `O[C@@H]1COc2c(-c3[nH]c4ncccc4c3-c3csnc3OC(F)F)c(C(F)F)nn2C1` [EX. 461] displayed an IC50 of less than 10 nM.
`COc1ccc(C#N)c(-c2c(-c3c(C(F)F)nn4c3OCCC4)[nH]c3ncccc23)c1` [EX. 242] yielded an IC50 (class symbols) of less than 10 nM.
The same measure, in the same setting: the value for `N#Cc1nccnc1-c1c(-c2c(C(F)F)nn3c2OCCC3)[nH]c2ncccc12` [EX. 409] was 100 to 1000 nM; that for `COc1ccc(F)cc1-c1[nH]c2ncccc2c1-c1cn(C)nc1C(F)F` [EX. 292] was 100 to 1000 nM.
Still for that read-out and setting: the value for `Cc1ccc(C#N)c(-c2c(-c3cnn4cccnc34)[nH]c3ncccc23)c1` [EX. 100] was less than 10 nM; that for `COc1ncccc1-c1c(-c2c(C(F)F)nn3c2OC[C@@H](O)C3)[nH]c2ncccc12` [EX. 462] was less than 10 nM; that for `Cc1nn2c(c1-c1[nH]c3ncccc3c1-c1cccnc1OC(F)F)OC[C@@H](O)C2` [EX. 496] was less than 10 nM.
Consider `Cn1cc(-c2c(-c3c(C(F)F)nn4c3OC[C@@H](OCC(N)=O)C4)[nH]c3ncccc23)c(OC(F)F)n1` [EX. 583, (S)-2-((3-(3-(3-(difluoromethoxy)-1-methyl-1H-pyrazol-4-yl)-1H-pyrrolo[2,3-b]pyridin-2-yl)-2-(difluoromethyl)-6,7-dihydro-5H-pyrazolo[5,1-b] [1,3]oxazin-6-yl)oxy) acetamide], for which the IC50 (class symbols) is less than 10 nM.
Take `COc1nsc(OC)c1-c1[nH]c2ncccc2c1-c1ccccc1C#N` [EX. 137]: the IC50 (class symbols) was less than 10 nM.
The same measure, in the same setting: the value for `CNC(=O)COC(=O)N[C@@H]1COc2c(-c3[nH]c4ncccc4c3-c3cn(C)nc3OC(F)F)c(C(F)F)nn2C1` [EX. 590] was less than 10 nM; that for `Cc1ccc(C#N)c(-c2c(-c3c[nH]nc3C(F)F)[nH]c3ncccc23)c1` [EX. 101] was less than 10 nM; that for `COc1ccc(C#N)c(-c2c(-c3c(C(F)F)nn4c3OC[C@@H](O)C4)[nH]c3ncccc23)c1` [EX. 369] was less than 10 nM.
Still for that read-out and setting: the result for `COc1ccc(C#N)c(-c2c(-c3c(C(F)F)nn4c3OCC(NC(C)=O)C4)[nH]c3ncccc23)c1` (stereo not drawn) [EX. 358] reads less than 10 nM.
Same read-out and setting: the result for `[2H]c1cnc2[nH]c(-c3c(C)nn4c3OCCC4)c(-c3cc(OC([2H])([2H])[2H])ccc3C#N)c2c1` [EX. 216] reads less than 10 nM.
Regarding `Cc1cc(-c2c(-c3c(C)nn4c3OC[C@@H](NC(=O)C3CC3)C4)[nH]c3ncccc23)c(C#N)s1` [EX. 505], where the note is “class symbols”, the half-maximal inhibitory concentration (IC50) is less than 10 nM.
Molecule `COc1ccc(F)cc1-c1[nH]c2ncccc2c1-c1cc(C)ccc1F` [EX. 21, 2-(5-fluoro-2-methoxy-phenyl)-3-(2-fluoro-5-methyl-phenyl)-1H-pyrrolo[2,3-b]pyridine] gave a concentration for half-maximal inhibition (IC50) (class symbols) of less than 10 nM.
Still for that read-out and setting: the value for `CO[C@@H]1COc2c(-c3[nH]c4ncccc4c3-c3cccnc3OC(F)F)c(C(F)F)nn2C1` [EX. 499] was less than 10 nM; that for `COc1ccc(C#N)c(-c2c(-c3c[nH]nc3C(F)(F)F)[nH]c3ncccc23)c1` [EX. 80] was less than 10 nM.
Same read-out and setting: the value for `COc1ccccc1-c1[nH]c2ncccc2c1-c1ccccc1C#N` [EX. 307] was less than 10 nM.
On to `CO[C@@H]1COc2c(-c3[nH]c4ncccc4c3-c3cc(C)sc3C#N)c(C(F)F)nn2C1` [EX. 506], for which the IC50 (class symbols) was less than 10 nM.
The same measure, in the same setting: the value for `Cn1nc(-c2[nH]c3ncccc3c2-c2ccccc2C#N)c(C(F)(F)F)n1` [EX. 241] was less than 10 nM; that for `Cn1cc(-c2c(-c3c(C(F)F)nn4c3OC[C@@H](OCC(C)(C)O)C4)[nH]c3ncccc23)c(C#N)n1` [EX. 501] was less than 10 nM.
Still for that read-out and setting: the value for `Cc1cc(-c2c(-c3c(C(F)F)nn4c3OC[C@@H](O)C4)[nH]c3ncccc23)c(Cl)s1` [EX. 479] was less than 10 nM; that for `N#Cc1ccccc1-c1c(-c2cn[nH]c2C(F)F)[nH]c2nccc(F)c12` [EX. 81] was less than 10 nM.
Still for that read-out and setting: the value for `Cn1cc(-c2c(-c3c(C(F)F)nn4c3OCCC4)[nH]c3ncccc23)c(C#N)n1` [EX. 401] was less than 10 nM; that for `Cc1cc(-c2c(-c3c(C(F)F)nn4c3OCCCC4)[nH]c3ncccc23)c(C#N)s1` [EX. 452] was less than 10 nM.
For the molecule `Cc1ccc(C#N)c(-c2c(-c3c[nH]nc3OC(F)F)[nH]c3ncccc23)c1` [EX. 158], the half-maximal inhibitory concentration (IC50) (class symbols) was less than 10 nM.
The same measure, in the same setting: the value for `COC(=O)N[C@@H]1COc2c(-c3[nH]c4ncccc4c3-c3cccnc3C#N)c(C(F)F)nn2C1` [EX. 514] was less than 10 nM; that for `COc1ccc(F)c(-c2c(-c3cc(F)ccc3OC)[nH]c3ncccc23)c1` [EX. 323] was less than 10 nM.
The same measure, in the same setting: the value for `N#Cc1cccnc1-c1c(-c2c(C(F)F)nn3c2OCCC3)[nH]c2ncccc12` [EX. 413] was 100 to 1000 nM; that for `N#Cc1ncccc1-c1c(-c2c(C(F)F)nn3c2OC[C@@H](F)C3)[nH]c2ncccc12` [EX. 424] was less than 10 nM; that for `COc1ccc(C#N)c(-c2c(-c3c(C(F)F)nn4c3OCC3(CC3)C4)[nH]c3ncccc23)c1` [EX. 183] was less than 10 nM.
